Earlier results in paper PMC9199361 (Inorganic chemistry, 2020).

How the values were obtained:
[1] = 5 M HCl, 90 °C
[2] = copper complex of the chelator
[3] = for log KML: copper(II) complex of the chelator

| acid stability (conditions) [1] | reversibility of the redox event at E1/2 [2] | thermodynamic stability constant (log KML) ([3]; copper(II) complex) | E1/2 (V) [2] [V] | log KML [3] | SMILES |
| --- | --- | --- | --- | --- | --- |
| <3 min (5 M HCl, 90 °C) | irrev | 21.9 |  |  | O=C(O)CN1CCN(CC(=O)O)CCN(CC(=O)O)CC1 [NOTA] |
| <4.5 min (5 M HCl, 90 °C) | irrev |  | −0.980 | 21.9 | O=C(O)CN1CCCN(CC(=O)O)CCN(CC(=O)O)CCCN(CC(=O)O)CC1 [TETA] |
| 254 h (5 M HCl, 90 °C) | quasi-rev |  | −0.88 | 27.1 | O=C(O)CN1CCCN2CCN(CCCN(CC(=O)O)CC2)CC1 [CB-TE2A] |
